Test results published in paper PMC10611828 (European Journal of Nuclear Medicine and Molecular Imaging, 2023).
Where two headings read alike, the source gives them in different places.

How the values were obtained:
[1] = In vivo biodistribution and clearance in PC-3 tumor-bearing mice; conditions: male, NMRI-Foxn1 nu/nu, mouse, iv, total radioactivity, i.v.; for tissue uptake at 1 h: 1 h p.i.; for tissue uptake at 4 h: 4 h p.i.; for tissue uptake at 24 h: 24 h p.i.; for tissue uptake at 48 h: 48 h p.i.; for tissue uptake at 72 h: 72 h p.i.
Experimental: All animal experiments were approved by the Animal Welfare Committee of the Erasmus MC, and all experiments were conducted in accordance to institutional guidelines.
At 1, 4, 24, 48, and 72 h post-injection (p.i.), animals were sedated using 2.5% isoflurane in oxygen, and blood was collected via the orbital vein, after which the animals were euthanized using cervical dislocation. Subsequently, the following organs were collected; the tail, tumor, spleen, liver, pancreas, small intestine, colon, coecum, kidneys, lung, and muscle. […] The collected tumor and organs were weighed, and the radioactivity was measured in the gamma counter. The biodistribution data are expressed as percentage injected dose per gram of tissue (% ID/g). Animal numbers per group are indicated in Supplementary Table 1 and 2.
Statistical analysis was performed using Graphpad Prism version 9.0.0. Outliers were identified using the ROUT method with a Q value of 1%. IC50 curves were determined using non-linear regression.

[2] = Stability in mouse serum at 37 °C (radio-HPLC); assay type: in vitro ADME
Experimental: (§1) The ^177Lu-labeled peptides were incubated in 300-μL phosphate buffered saline (PBS; Gibco, ThermoFisher, The Netherlands) at 37 °C, and their stability was verified after 1, 4, 24, 48, and 72 h by radio-HPLC (Supplementary Fig. 2). The stability in serum was determined by incubating the radiolabeled compounds into 300 μL of mouse serum (Invitrogen, USA) or human serum (Sigma Aldrich, USA) at 37 °C (Supplementary Fig. 3, 4). At each time point post-incubation, 35 μL of the mixture was added to an Eppendorf tube, and the proteins were precipitated by adding an equal volume of acetonitrile. The tubes were centrifuged at 16,000 rpm, 4 °C for 20 min, and the stability was monitored by radio-HPLC, expressed as the RCP at the different time points.

[3] = parameters: method as in PMID 35951084; conditions: cited from earlier work
[4] = Stability in human serum at 37 °C (radio-HPLC); assay type: in vitro ADME
Experimental: as §1

[5] = PC-3 tumor, read-out: % uptake PC-3 tumor
[6] = blood, read-out: % uptake blood
[7] = gastrointestinal tract, read-out: % uptake gastrointestinal tract
[8] = kidney, read-out: % uptake kidney
[9] = liver, read-out: % uptake liver
[10] = muscle, read-out: % uptake muscle
[11] = pancreas, read-out: % uptake pancreas
[12] = prostate, read-out: % uptake prostate
[13] = spleen, read-out: % uptake spleen
[14] = 1 h, read-out: intact radiolabeled ligand (RCP)
[15] = 4 h, read-out: intact radiolabeled ligand (RCP)
[16] = 24 h, read-out: intact radiolabeled ligand (RCP)
[17] = 48 h, read-out: intact radiolabeled ligand (RCP)
[18] = 72 h, read-out: intact radiolabeled ligand (RCP)

**Q.** Which tissue uptake at 1 h [1, 5] does the source give for `CC(C)CC(CC(C)C)NC(=O)[C@H](Cc1cnc[nH]1)NC(=O)CNC(=O)[C@@H](NC(=O)[C@H](C)NC(=O)[C@H](Cc1c[nH]c2ccccc12)NC(=O)[C@H](CCC(N)=O)NC(=O)[C@@H](Cc1ccccc1)NC(=O)COCC(=O)Nc1ccc(CNC(=O)CN2CCN(CC(=O)O)CCN(CC(=O)O)CCN(CC(=O)O)CC2)cc1)C(C)C` [[^177Lu]Lu-NeoB, metal not drawn] here?
**A.** Its tissue uptake at 1 h is 9.38 ± 0.81 %ID/g.

**Q.** What about the tissue uptake at 4 h [1, 5] of the same compound?
**A.** Its tissue uptake at 4 h is 9.98 ± 2.64 %ID/g.

**Q.** What about the tissue uptake at 24 h [1, 5] of the same compound?
**A.** Its tissue uptake at 24 h is 8.05 %ID/g.

**Q.** And the tissue uptake at 48 h [1, 5]?
**A.** Its tissue uptake at 48 h is 4.77 %ID/g.

**Q.** What about the tissue uptake at 72 h [1, 5] of the same compound?
**A.** Its tissue uptake at 72 h is 2.88 %ID/g.

**Q.** What about the tissue uptake at 1 h [1, 6] of the same compound?
**A.** The tissue uptake at 1 h was 1.15 %ID/g.

**Q.** And the tissue uptake at 4 h [1, 6]?
**A.** The tissue uptake at 4 h was 0.11 %ID/g.

**Q.** And the tissue uptake at 24 h [1, 6]?
**A.** Its tissue uptake at 24 h is 0.01 %ID/g.

**Q.** What about the tissue uptake at 48 h [1, 6] of the same compound?
**A.** Its tissue uptake at 48 h is 0.01 %ID/g.

**Q.** What about the tissue uptake at 1 h [1, 7] of the same compound?
**A.** Its tissue uptake at 1 h is 3.08 %ID/g.

**Q.** What about the tissue uptake at 4 h [1, 7] of the same compound?
**A.** The tissue uptake at 4 h was 1.91 %ID/g.

**Q.** What about the tissue uptake at 24 h [1, 7] of the same compound?
**A.** Its tissue uptake at 24 h is 0.09 %ID/g.

**Q.** What about the tissue uptake at 48 h [1, 7] of the same compound?
**A.** The tissue uptake at 48 h was 0.26 %ID/g.

**Q.** What about the tissue uptake at 72 h [1, 7] of the same compound?
**A.** Its tissue uptake at 72 h is 0.15 %ID/g.

**Q.** And the tissue uptake at 1 h [1, 8]?
**A.** Its tissue uptake at 1 h is 2.68 %ID/g.

**Q.** And the tissue uptake at 4 h [1, 8]?
**A.** Its tissue uptake at 4 h is 0.86 %ID/g.

**Q.** And the tissue uptake at 24 h [1, 8]?
**A.** Its tissue uptake at 24 h is 0.1 %ID/g.

**Q.** And the tissue uptake at 48 h [1, 8]?
**A.** The tissue uptake at 48 h was 0.06 %ID/g.

**Q.** What about the tissue uptake at 72 h [1, 8] of the same compound?
**A.** Its tissue uptake at 72 h is 0.04 %ID/g.

**Q.** What about the tissue uptake at 1 h [1, 9] of the same compound?
**A.** Its tissue uptake at 1 h is 3.35 %ID/g.

**Q.** What about the tissue uptake at 4 h [1, 9] of the same compound?
**A.** The tissue uptake at 4 h was 0.54 %ID/g.

**Q.** What about the tissue uptake at 24 h [1, 9] of the same compound?
**A.** Its tissue uptake at 24 h is 0.12 %ID/g.

**Q.** What about the tissue uptake at 48 h [1, 9] of the same compound?
**A.** Its tissue uptake at 48 h is 0.08 %ID/g.

**Q.** What about the tissue uptake at 72 h [1, 9] of the same compound?
**A.** Its tissue uptake at 72 h is 0.06 %ID/g.

**Q.** And the tissue uptake at 1 h ([1]; lung, read-out: % uptake lungs)?
**A.** The tissue uptake at 1 h was 0.69 %ID/g.

**Q.** And the tissue uptake at 4 h ([1]; lung, read-out: % uptake lungs)?
**A.** Its tissue uptake at 4 h is 0.09 %ID/g.

**Q.** And the tissue uptake at 24 h ([1]; lung, read-out: % uptake lungs)?
**A.** The tissue uptake at 24 h was 0.02 %ID/g.

**Q.** What about the tissue uptake at 48 h ([1]; lung, read-out: % uptake lungs) of the same compound?
**A.** Its tissue uptake at 48 h is 0.01 %ID/g.

**Q.** What about the tissue uptake at 72 h ([1]; lung, read-out: % uptake lungs) of the same compound?
**A.** The tissue uptake at 72 h was 0.01 %ID/g.

**Q.** And the tissue uptake at 1 h [1, 10]?
**A.** The tissue uptake at 1 h was 0.13 %ID/g.

**Q.** What about the tissue uptake at 4 h [1, 10] of the same compound?
**A.** Its tissue uptake at 4 h is 0.05 %ID/g.

**Q.** And the tissue uptake at 1 h [1, 11]?
**A.** Its tissue uptake at 1 h is 30.7 ± 4.29 %ID/g.

**Q.** What about the tissue uptake at 4 h [1, 11] of the same compound?
**A.** Its tissue uptake at 4 h is 21.4 ± 3.05 %ID/g.

**Q.** What about the tissue uptake at 24 h [1, 11] of the same compound?
**A.** The tissue uptake at 24 h was 4.14 %ID/g.

**Q.** What about the tissue uptake at 48 h [1, 11] of the same compound?
**A.** The tissue uptake at 48 h was 0.83 %ID/g.

**Q.** What about the tissue uptake at 72 h [1, 11] of the same compound?
**A.** Its tissue uptake at 72 h is 0.35 %ID/g.

**Q.** What about the tissue uptake at 1 h [1, 12] of the same compound?
**A.** Its tissue uptake at 1 h is 0.7 %ID/g.

**Q.** What about the tissue uptake at 4 h [1, 12] of the same compound?
**A.** Its tissue uptake at 4 h is 0.08 %ID/g.

**Q.** And the tissue uptake at 24 h [1, 12]?
**A.** Its tissue uptake at 24 h is 0.02 %ID/g.

**Q.** And the tissue uptake at 48 h [1, 12]?
**A.** Its tissue uptake at 48 h is 0.01 %ID/g.

**Q.** And the tissue uptake at 72 h [1, 12]?
**A.** Its tissue uptake at 72 h is 0.01 %ID/g.

**Q.** And the tissue uptake at 1 h [1, 13]?
**A.** The tissue uptake at 1 h was 0.43 %ID/g.

**Q.** What about the tissue uptake at 4 h [1, 13] of the same compound?
**A.** Its tissue uptake at 4 h is 0.15 %ID/g.

**Q.** And the tissue uptake at 24 h [1, 13]?
**A.** The tissue uptake at 24 h was 0.04 %ID/g.

**Q.** What about the tissue uptake at 48 h [1, 13] of the same compound?
**A.** The tissue uptake at 48 h was 0.02 %ID/g.

**Q.** And the tissue uptake at 72 h [1, 13]?
**A.** Its tissue uptake at 72 h is 0.01 %ID/g.

**Q.** What about the “intact radiolabeled ligand (RCP)” value ([2]; 0 h) of the same compound?
**A.** Its value is 97.1 ± 0.3%.

**Q.** What about the remaining at 1 h [2, 14] of the same compound?
**A.** Its remaining at 1 h is 94.3 ± 0.7%.

**Q.** And the remaining at 4 h [2, 15]?
**A.** Its remaining at 4 h is 84.1 ± 1.1%.

**Q.** And the remaining at 24 h [2, 16]?
**A.** Its remaining at 24 h is 27.9 ± 2.3%.

**Q.** What about the remaining at 48 h [2, 17] of the same compound?
**A.** Its remaining at 48 h is 14.2 ± 1%.

**Q.** And the remaining at 72 h [2, 18]?
**A.** Its remaining at 72 h is 4.4 ± 1.2%.

**Q.** And the tolerability ([3]; after repeated radiotracer administration)?
**A.** Its tolerability is “well tolerated”.

**Q.** What about the “hematological effects after treatment” value [3] of the same compound?
**A.** The value was “no lasting hematological effects”.

**Q.** What about the “intact radiolabeled ligand (RCP)” value ([4]; 0 h) of the same compound?
**A.** Its value is 97.1 ± 0.3%.

**Q.** And the remaining at 1 h [4, 14]?
**A.** The remaining at 1 h was 97.9 ± 0.2%.

**Q.** What about the remaining at 4 h [4, 15] of the same compound?
**A.** Its remaining at 4 h is 97.8 ± 0.3%.

**Q.** And the remaining at 24 h [4, 16]?
**A.** The remaining at 24 h was 89.2 ± 0.5%.

**Q.** What about the remaining at 48 h [4, 17] of the same compound?
**A.** The remaining at 48 h was 81 ± 0.7%.

**Q.** What about the remaining at 72 h [4, 18] of the same compound?
**A.** The remaining at 72 h was 75.6 ± 1.7%.
